Measurements published in US6677309B1, “Anti-cancer drug aldehyde conjugate drugs with enhanced cytotoxicity compounds, compositions and methods” (University Technology Corporation, priority 1997, dated 2004).

Experiments:
[1] = system: MCF-7 cells; assay: In vitro cytotoxicity, colony formation by crystal violet assay, MCF-7; details: for fold less toxic than the next conjugate: EPIF versus DAUNF, DAUNF versus DOXF, both sensitive (MCF-7) and resistant (MCF-7/ADR) breast cancer cells
Method: The term IC50 as used herein refers to the concentration of drug which inhibits cell growth by 50%, i.e., 50% of cells are viable at the IC50 concentration relative to a no-drug control.
Cells were incubated with drug for 3 h in RPMI (Roswell Park Memorial Institute) 1640 media containing 10% fetal bovine serum and 1% DMSO. Plates, were developed using the crystal violet assay. […] In all cases percent survival was determined by the extent of colony formation six days after drug treatment.
All tissue culture materials were obtained from Gibco Life Technologies (Grand Island, N.Y.) unless otherwise stated. MCF-7 breast cancer cells were obtained from American Type Culture Collection (Rockville, Md.). […] Both cell lines were maintained in vitro by serial culture in phenol red-free RPMI Media 1640 supplemented with 10% fetal bovine serum (Gemini Bio-Products, Calbasas, Calif.), L-glutamine (2 mM), HEPES buffer (10 mM), penicillin (100 units/mL), and streptomycin (100 μg/mL). […] Cells were maintained at 37° C. in a humidified atmosphere of 5% CO2 and 95% air.
Cells were dissociated with trypsin-EDTA, counted, and suspended in growth media to a concentration of 5×10^3 cells/mL. Cell suspensions were dispensed in 200 μL aliquots into 96-well tissue culture plates. Plates were then incubated for 24 h at 37° C. in a humidified atmosphere of 5% CO2 and 95% air. The media was replaced with 180 μL of growth media prior to addition of the cytotoxic agents.
Concentrations were then corrected by measuring the solution absorbance at 480 nm (ε=11,500/mole anthracycline). The solutions were then serially diluted in DMSO to give a series of 100× working concentration solutions. For each concentration, the 100× solution was diluted 1:10 in serum-free RPMI Media 1640. 20 μL of the resulting […] solution was immediately added to the appropriate lane. Additionally, one lane was treated with 20 μL of 10% DMSO in serum-free RPMI (no drug) and one lane replaced with 200 μL of 1.5 M Tris buffer (no cells). The cells were incubated at 37° C. for 3 h. The drug solutions were removed and 200 μL of fresh growth media was added to each well.
The extent of colony formation was determined by use of a crystal violet staining assay (Gilles, R. J. et al. (1986), “Determination of cell number in monolayer cultures,” Anal. Biochem. 159:109-113; Reile, H. et al. (1990), “Computerized determination of growth kinetic curves and doubling times from cells in microcultures,” Anal. Biochem. 187:262-267). […] The cells were then stained with 75 μL of 0.1% crystal violet in deionized water for 30 min. […] The plates were blotted dry and 200 μL of 70% ethanol in water was added to each well to solublize the dye. The plates were stored at 4° C. until solubilization was complete (about 4 h). The optical density of each well was measured on an ELISA plate reader at 588 nm. Relative colony sizes were determined by comparison of the drug treated lanes to the control lanes.
MCF-7 breast cancer cells were obtained from American Type Culture Collection (Rockville, Md.). MCF-7/ADR adriamycin resistant breast cancer cells were a gift of Dr. William W. Wells (Michigan State University). Both cell lines were maintained in vitro by serial culture in phenol red-free RPMI Media 1640 supplemented with 10% fetal bovine serum (Gemini Bio-Products, Calbasas, Calif.), L-glutamine (2 mM), HEPES buffer ([…]), penicillin (100 units/mL), and streptomycin (100 μg/mL). […] Cells were maintained at 37° C. in a humidified atmosphere of 5% CO2 and 95% air.
1640 media containing 10% fetal bovine serum. The resulting 90% media/10% DMSO solutions (v/v) were incubated at 37° C. for 6h.

[2] = Stability in DMSO and DMSO/water, NMR or HPLC; assay type: physicochemical
Method: Crystalline dimeric formaldehyde conjugate of daunorubicin (2.8 mg, 2.6 μmol) was dissolved in 500 μL of DMSO-d6 (stored over 3 A molecular sieves) and analyzed by 400 MHz, ^1H NMR. […] Upon addition of 25 μL of D2O to the 500 μL DMSO-d6 sample, the dimeric formaldehyde conjugate of daunorubicin reacted over a 24 h period to form an equilibrium mixture consisting of 67% dimeric formaldehyde conjugate of daunorubicin and 32% of an intermediate. Because of the complexity of the spectrum, a structure could not be assigned to the intermediate; however, the intermediate appeared to have an oxazolidine ring. Upon addition of 3 equiv of hydrochloric acid in 130 μL of deuterium oxide, hydrolysis to daunorubicin-HCl was complete. The hydrochloric acid solution was prepared by the addition of 10 μL of concentrated HCl to 990 μL of D2O. The formaldehyde released from the dimeric formaldehyde conjugate of daunorubicin was detected as its hydrate. The final product was identified as daunorubicin by comparison of the NMR spectrum with that of a sample of daunorubicin plus 3 equiv of HCl. Further, the final product was isolated by removal of all volatile components under vacuum (0.1 Torr), and its ^1H NMR spectrum was identical to that of daunorubicin-HCl.
Amorphous dimeric formaldehyde conjugate of daunorubicin, when worked up in methylene chloride, was stable in DMSO for at least 4 days. It hydrolyzed with added D2O and hydrochloric acid in a manner similar to that of the crystalline material. When worked up in chloroform, amorphous dimeric formaldehyde conjugate of daunorubicin had less stability in DMSO, presumably due to traces of HCl from the chloroform.
A 1.3 mg sample of N-acetyl-3′-N,4′-O-methylenedaunorubicin was dissolved in […] of DMSO and analyzed over time by HPLC. […] At this time, […] of water was added to the DMSO/N-acetyl monomeric formaldehyde conjugate of daunorubicin solution, establishing a 50:50 DMSO:water mixture (v/v). In this solution, the N-acetyl-3′-N,4′-O-methylenedaunorubicin remained 91% intact (9% degradation to daunorubicin) over a period of 6 days, based upon the HPLC analysis.
A pH 6 triethyl ammonium acetate solution containing 13.1 μmol of epidoxorubicin-HCl and 6.6 mmol of […] was allowed to react in the dark at 25° C. for 30 min. The mixture was then extracted with chloroform with vigorous stirring for 20 min. The chloroform solution was dried over sodium sulfate and the chloroform removed by rotary evaporation. The resulting dry solid was redissolved in 1.0 mL of chloroform. To this was added 10 mL of n-hexane. After 2 days, a large amount of precipitate had formed, which was washed with 3×5 mL of n-hexane, followed by 4×1 mL of water.
The sample was maintained at ambient temperature for 2 h; after this period no change in the spectrum was observed. […] A stock 122 mM solution of HCl in D2O was prepared by adding concentrated hydrochloric acid to D2O. […] Complete hydrolysis occurred upon addition of ca. 2-3 equiv of HCl. A similar experiment was performed using HCl in H2O. […] This solution was incubated at 37° C. for 24 h prior to NMR analysis.

Row | Compound | fold less toxic than the next conjugate [1] | IC50 ([1]; read-out: IC50 Values, MCF-7, 3 h drug incubation in RPMI 1640, 10% fetal bovine serum, 1% DMSO, colony formation six days after treatment, fresh drug solution) | times more cytotoxic against the MCF-7 cell line than the parent drug ([1]; relative to daunorubicin and doxorubicin, respectively) | fold more toxic to MCF-7 cells than the parent drug ([1]; relative to the respective parent drug) | share of conjugate in the equilibrium mixture ([2]; 25 μL D2O added to 500 μL DMSO-d6, over 24 h, NMR) | time stable in DMSO ([2]; crystalline material in DMSO-d6 stored over molecular sieves, 1H NMR) | time stable in DMSO ([2]; dry DMSO / DMSO-d6, 1H NMR)
1 | COc1cccc2c1C(=O)c1c(O)c3c(c(O)c1C2=O)C[C@@](O)(C(C)=O)C[C@@H]3O[C@H]1C[C@H]2[C@H](OCN2CN2CO[C@@H]3[C@H](C)O[C@@H](O[C@H]4C[C@](O)(C(C)=O)Cc5c(O)c6c(c(O)c54)C(=O)c4c(OC)cccc4C6=O)C[C@@H]32)[C@H](C)O1 [DAUNF, bis(3′-N-(3′-N,4′-O-methylenedaunorubicinyl))methane] | approximately 7 fold | 4 nM | 7 times | 7 fold | 67% | at least 14 h | at least 4 days
2 | COc1cccc2c1C(=O)c1c(O)c3c(c(O)c1C2=O)CC(O)(C(=O)CO)CC3OC1CC2C(OCN3CN2COC2C(C)OC(OC4C[C@](O)(C(=O)CO)Cc5c(O)c6c(c(O)c54)C(=O)c4c(OC)cccc4C6=O)CC23)C(C)O1 (stereo partly drawn) [EPIF] | approximately 7 fold |  |  |  |  |  | at least 4 days
